# Test results published in article PMC7497095, “Active Intermediates in Copper Nitrite Reductase Reactions Probed by a Cryotrapping‐Electron Paramagnetic Resonance Approach” (Angewandte Chemie (International Ed. in English), 2020).
# Molecular target: T1, AxNiR (Achromobacter xylosoxidans, UniProt O68601)
# T1 construct: gene nir; two-domain copper nitrite reductase, homotrimer
# Assay: continuous-wave EPR of T2Cu; cryoreduction-EPR with annealing
# Type: binding
# Conditions: oxidized enzyme; T2Cu active site; EPR at 20 K
# T1 sequence (O68601 entry or part of it): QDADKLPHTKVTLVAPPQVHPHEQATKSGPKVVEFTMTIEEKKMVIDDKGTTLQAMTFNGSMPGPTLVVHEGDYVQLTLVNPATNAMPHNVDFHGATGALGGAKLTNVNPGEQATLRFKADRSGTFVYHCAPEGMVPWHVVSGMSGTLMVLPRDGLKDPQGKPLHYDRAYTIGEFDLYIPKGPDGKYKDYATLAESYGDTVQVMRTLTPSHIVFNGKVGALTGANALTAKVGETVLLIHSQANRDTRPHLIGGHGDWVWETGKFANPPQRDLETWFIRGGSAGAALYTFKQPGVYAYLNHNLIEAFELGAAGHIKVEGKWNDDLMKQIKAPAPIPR
smiles,measurement,value
O=NO [nitrite],continuous-wave EPR of T2Cu; cryoreduction-EPR with annealing,This is indicative of the nitrite being bound to the catalytic T2Cu site
